Measurements: ChEMBL document CHEMBL5506037, “Synthesis of Heterocyclic Ring-Fused Bisnoralcohol Derivatives as Novel Small-Molecule Antiosteoporosis Agents” (J Med Chem, 2024)
Active and inactive are the calls of the source. No cut-off for these calls is given here.

Tests used:
BMMC [1] = assay: Anti-osteoclastogenesis activity in M-CSF/RANKL-induced C57BL/6J mouse BMMC cells assessed as inhibition of osteoclast differentiation at late stage at 0.1 uM measured after 5 to 7 days by TRAP staining based analysis relative to control; format: functional; conditions: time 5-7 day
BMMC [2] = assay: Anti-osteoclastogenesis activity in M-CSF/RANKL-induced C57BL/6J mouse BMMC cells assessed as inhibition of Acp5 gene expression by RNA sequencing analysis; format: functional, cell-based
BMMC [3] = assay: Anti-osteoclastogenesis activity in M-CSF/RANKL-induced C57BL/6J mouse BMMC cells assessed as inhibition of Fosl2 gene expression by RNA sequencing analysis; format: functional, cell-based
BMMC [4] = assay: Anti-osteoclastogenesis activity in M-CSF/RANKL-induced C57BL/6J mouse BMMC cells assessed as inhibition of Fosl1 gene expression by RNA sequencing analysis; format: functional, cell-based
BMMC [5] = assay: Anti-osteoclastogenesis activity in M-CSF/RANKL-induced C57BL/6J mouse BMMC cells assessed as reduction in osteoclast generation at 0.5 uM incubated for 7 days by TRAP staining based analysis relative to control; format: functional; set-up: scale not given: the % may be the effect or the level left; conditions: time 7 day
BMMC [6] = assay: Anti-osteoclastogenesis activity in M-CSF/RANKL-induced C57BL/6J mouse BMMC cells assessed as inhibition of lilra5 gene expression by RNA sequencing analysis; format: functional, cell-based
[7] = Tmax in ICR mouse at 10 mg/kg, po measured upto 24 hrs by LC-MS/MS analysis; format: ADME, organism-based; conditions: in vivo
[8] = AUC (0 to t) in ICR mouse at 1 mg/kg, iv measured upto 24 hrs by LC-MS/MS analysis; format: ADME, organism-based; conditions: in vivo
BMMC [9] = assay: Anti-osteoclastogenesis activity in M-CSF/RANKL-induced C57BL/6J mouse BMMC cells assessed as reduction in MMP9 mRNA expression at 0.05 to 5 uM measured after 2 days by RT-qPCR analysis; format: functional, cell-based; conditions: dose 0.05-5 µM, time 2.0 day
BMMC [10] = assay: Anti-osteoclastogenesis activity in M-CSF/RANKL-induced C57BL/6J mouse BMMC cells assessed as reduction in TRAP protein expression measured after 3 days by Western blot analysis; format: functional, cell-based; conditions: dose 0.05-5 µM, time 3.0 day
[11] = Cytotoxicity against M-CSF induced C57BL/6J mouse BMMC cells assessed as cell viability at 10 uM incubated for 48 hrs by CCK-8 assay relative to control; format: toxicity, cell-based; conditions: read-out: Activity
Mus musculus [12] = assay: Anti-osteoporosis activity in ovariectomized C57BL/6 mouse assessed as prevention of bone loss by measuring recovery of trabecular spacing in femur at 0.6 mg/kg, ip administered every day for 6 weeks by 3D-imaging analysis relative to control; format: functional
[13] = Cmax in ICR mouse at 10 mg/kg, po measured upto 24 hrs by LC-MS/MS analysis; format: ADME, organism-based; conditions: in vivo
Mus musculus [14] = assay: Anti-osteoporosis activity in ovariectomized C57BL/6 mouse assessed as prevention of bone loss by measuring recovery of trabecular thickness in femur at 0.2 to 0.6 mg/kg, ip administered every day for 6 weeks by 3D-imaging analysis; format: functional, organism-based; conditions: dose 0.2-0.6 mg/kg
BMMC [15] = assay: Anti-osteoclastogenesis activity in M-CSF/RANKL-induced C57BL/6J mouse BMMC cells assessed as inhibition of MMP9 gene expression by RNA sequencing analysis; format: functional, cell-based
BMMC [16] = assay: Anti-osteoclastogenesis activity in M-CSF/RANKL-induced C57BL/6J mouse BMMC cells assessed as inhibition of Oscar gene expression by RNA sequencing analysis; format: functional, cell-based
BMMC [17] = assay: Anti-osteoclastogenesis activity in M-CSF/RANKL-induced C57BL/6J mouse BMMC cells assessed as reduction in size and amount of osteoclasts by measuring reduction in F-actin ring formation incubated for 7 days by rhodamine-labeled phalloidin staining based fluorescence microscopic analysis; format: functional, cell-based; conditions: dose 0.05-0.5 µM, time 7.0 day
BMMC [18] = assay: Anti-osteoclastogenesis activity in M-CSF/RANKL-induced C57BL/6J mouse BMMC cells assessed as reduction in size and amount of osteoclasts by measuring reduction in TRAP-positive multinucleated cells incubated for 7 days by TRAP staining based analysis; format: functional, cell-based; conditions: dose 0.05-0.5 µM, time 7.0 day
Mus musculus [19] = assay: Anti-osteoporosis activity in ovariectomized C57BL/6 mouse assessed as prevention of bone loss by measuring recovery of trabecular number in femur at 0.6 mg/kg, ip administered every day for 6 weeks by 3D-imaging analysis relative to control; format: functional
[20] = Tmax in ICR mouse at 1 mg/kg, iv measured upto 24 hrs by LC-MS/MS analysis; format: ADME, organism-based; conditions: in vivo
BMMC [21] = assay: Anti-osteoclastogenesis activity in M-CSF/RANKL-induced C57BL/6J mouse BMMC cells assessed as inhibition of FOS gene expression by RNA sequencing analysis; format: functional, cell-based
BMMC [22] = assay: Anti-osteoclastogenesis activity in M-CSF/RANKL-induced C57BL/6J mouse BMMC cells assessed as inhibition of Il1b gene expression by RNA sequencing analysis; format: functional, cell-based
BMMC [23] = assay: Anti-osteoclastogenesis activity in M-CSF/RANKL-induced C57BL/6J mouse BMMC cells assessed as inhibition of osteoclast differentiation at early stage at 0.1 uM measured after 1 to 3 days by TRAP staining based analysis relative to control; format: functional; conditions: time 1-3 day
BMMC [24] = assay: Anti-osteoclastogenesis activity in M-CSF/RANKL-induced C57BL/6J mouse BMMC cells assessed as reduction in osteoclast generation at 0.05 uM incubated for 7 days by TRAP staining based analysis relative to control; format: functional; set-up: scale not given: the % may be the effect or the level left; conditions: time 7 day
Mus musculus [25] = assay: Anti-osteoporosis activity in ovariectomized C57BL/6 mouse assessed as prevention of bone loss by measuring recovery of BV/TV in femur at 0.6 mg/kg, ip administered every day for 6 weeks by 3D-imaging analysis relative to control; format: functional
[26] = AUC (0 to infinity) in ICR mouse at 10 mg/kg, po measured upto 24 hrs by LC-MS/MS analysis; format: ADME, organism-based; conditions: in vivo
[27] = AUC (0 to t) in ICR mouse at 10 mg/kg, po measured upto 24 hrs by LC-MS/MS analysis; format: ADME, organism-based; conditions: in vivo
BMMC [28] = assay: Anti-osteoclastogenesis activity in M-CSF/RANKL-induced C57BL/6J mouse BMMC cells assessed as reduction in TRAP mRNA expression at 0.05 to 5 uM measured after 2 days by RT-qPCR analysis; format: functional, cell-based; conditions: dose 0.05-5 µM, time 2.0 day
BMMC [29] = assay: Anti-osteoclastogenesis activity in M-CSF/RANKL-induced C57BL/6J mouse BMMC cells assessed as inhibition of CTSK gene expression by RNA sequencing analysis; format: functional, cell-based
BMMC [30] = assay: Anti-osteoclastogenesis activity in M-CSF/RANKL-induced C57BL/6J mouse BMMC cells assessed as reduction in TRAF6 mRNA expression at 0.05 to 5 uM measured after 2 days by RT-qPCR analysis; format: functional, cell-based; conditions: dose 0.05-5 µM, time 2.0 day
[31] = AUC (0 to infinity) in ICR mouse at 1 mg/kg, iv measured upto 24 hrs by LC-MS/MS analysis; format: ADME, organism-based; conditions: in vivo
BMMC [32] = assay: Anti-osteoclastogenesis activity in M-CSF/RANKL-induced C57BL/6J mouse BMMC cells assessed as inhibition of CALCR gene expression by RNA sequencing analysis; format: functional, cell-based

Which results are given for `CCNC(=O)[C@@H](C)[C@H]1CC[C@H]2[C@@H]3CC=C4C(C)(C)c5nnsc5C[C@]4(C)[C@H]3CC[C@]12C`?
inhibition at 0.1 µM (BMMC [1]): 10.9%; Activity (BMMC [2]): Active; Activity (BMMC [3]): Active; Activity (BMMC [4]): Active; Activity (BMMC [5]): ~100%; Activity (BMMC [6]): Active; Tmax [7]: 40.2 min; AUC(0-t) at 24 h [8]: 509 ng·h/mL; Activity (BMMC [9]): Active; Activity (BMMC [10]): Dose-Dependent Effect; viability at 48 h, 10 µM [11]: ≥ 100%; Activity (Mus musculus [12]): 61.09%; Cmax [13]: 230 ng/mL; Activity (Mus musculus [14]): inactive; Activity (BMMC [15]): Active; Activity (BMMC [16]): Active; Activity (BMMC [17]): Dose-Dependent Effect; Activity (BMMC [18]): Dose-Dependent Effect; Activity (Mus musculus [19]): 48.64%; Tmax [20]: 4.8 min; Activity (BMMC [21]): Active; Activity (BMMC [22]): Active; inhibition at 0.1 µM (BMMC [23]): 73.1%; Activity (BMMC [24]): 50%; Activity (Mus musculus [25]): 57.15%; AUC(0-inf) [26]: 688 ng·h/mL; AUC(0-t) at 24 h [27]: 654 ng·h/mL; Activity (BMMC [28]): Active; Activity (BMMC [29]): Active; Activity (BMMC [30]): Active; AUC(0-inf) [31]: 526 ng·h/mL; Activity (BMMC [32]): Active
